Measurements as given in patent US12595243B2, “Modulators of extracellular signal-regulated kinase” (GEN1E LIFESCIENCES INC., priority 2023, dated 2026).
Where two headings read alike, the source gives them in different places.

Tests used:
melanoma cell line A375 = assay: Cytotoxicity in cancer cell lines (CellTiter-Glo), A375; conditions: A375 cells, mean of three tests
Experimental: (§2) The cytotoxicity of test compounds was determined for several cell lines including melanoma cell line RPMI-7951, melanoma cell line Sk-Mel-28, melanoma cell line A375, melanoma cell line U87, glioblastoma cell line U87, immortalized human T lymphocyte Jurkat cells, and human pancreatic carcinoma cell line PL-45.
(§3) All cells were obtained from ATCC. RPMI, DMEM, EMEM and pen/strep were obtained from Invitrogen. Normocin® was obtained from InvivoGen. FBS was obtained from Gibco. Cell viability reagent Cell-titer glow was obtained from Promega.
(§4) The growth media for A375 and PL45 cells was DMEM supplemented with antibiotic/anti-mycotic pen/strep and Normocin® (InvivoGen) and 10% FBS.
(§5) Ten (10) mM solutions of each of the test compounds were prepared in dimethyl sulfoxide (DMSO) and serially diluted in DMSO to provide solutions having concentrations of the test compound of 3 mM, 1 mM, 0.3 mM, 0.1 mM, 0.03 mM, or 0.01 mM. Forty (40) μL of each of the solutions were further diluted to 400 μL in the cell specific complete media to provide 10× stock solutions having a 1 mM, 300 μM, 100 μM, 30 μM, 10 μM, 3 μM, 1 μM, or 0.3 μM of the test compound. Ten (10) μL of DMSO was diluted to 400 μL in the complete media and used as the 0 μM control.
(§6) For the cytotoxicity studies, all cells were grown in their respective complete media. Confluent cells were harvested and plated into two 96-well tissue culture treated plates at 5,000-8,000 cells/wells in 180 μL media. Twenty (20) μL of each of the 10× stock solutions were added to the wells and mixed.
(§7) After incubating for 24 h, media was aspirated out and replaced with 180 μL/well of the fresh media and 20 μL/well of the 10× stock solutions in duplicate wells in duplicate plates (Plates 1 and 2; and 3 and 4) and in quadruplicate wells (Plate 5) were added, mixed and cultured for 48 hours. The final concentrations of each test compound were 100 μM, 30 μM, 10 μM, 3 μM, 1 μM, 0.3 μM, 0.1 μM and 0 μM.
(§8) After 48 hours and/or 72 hours following addition of the test compounds, one plate each was removed from the incubator, the media aspirated out, 100 μL of CellTiter-Glo® reagent added to each well, and the resulting luminescent signals measured using a VICTOR-2® plate reader.
(§9) The data from the plate reader were exported to GraphPad (Prism) and data processed using non-linear regression and EC50 value determined.

[1] = test system: melanoma cell line RPMI-7951; assay: Cytotoxicity in cancer cell lines (CellTiter-Glo), RPMI-7951; assay type: cell-based; conditions: Homo sapiens
Source text: (§1) All cells were obtained from ATCC. […] Normocin® was obtained from InvivoGen. FBS was obtained from Gibco. […] All test compounds were synthesized as described herein.

[2] = test system: glioblastoma cell line U87; assay: Cytotoxicity in cancer cell lines (CellTiter-Glo), U87; assay type: cell-based; conditions: Homo sapiens, U-87 MG, U87 cells, mean of three tests
Source text: as §1

[3] = test system: human pancreatic carcinoma cell line PL-45; assay: Cytotoxicity in cancer cell lines (CellTiter-Glo), PL-45; conditions: PL45, 48 h, read-out: Cytotoxicity EC50 at 48 hours, PL-45
Experimental: as §2, §3, §4, §5, §6, §7, §8, §9

[4] = Cytotoxicity in primary cells (CellTiter-Glo), PBMC; assay type: cell-based; conditions: mean of three tests
Source text: as §1

[5] = test system: immortalized human T lymphocyte Jurkat cells; assay: Cytotoxicity in cancer cell lines (CellTiter-Glo), Jurkat; assay type: cell-based; conditions: Jurkat cells, mean of three tests
Source text: as §1

[6] = test system: melanoma cell line Sk-Mel-28; assay: Cytotoxicity in cancer cell lines (CellTiter-Glo), Sk-Mel-28; assay type: cell-based; conditions: Homo sapiens, Sk-Mel-28 cells, mean of three tests
Source text: as §1

[7] = Homo sapiens, A-375, 48 h, read-out: Cytotoxicity EC50 at 48 hours, A375, 48 h
[8] = Homo sapiens, A-375, 72 h, read-out: Cytotoxicity EC50 at 72 hours, A375, 72 h
[9] = RPMI-7951, 48 h, read-out: Cytotoxicity EC50 at 48 hours, RPMI
[10] = RPMI-7951, 72 h, read-out: Cytotoxicity EC50 at 72 hours, RPMI
[11] = 48 h, read-out: Cytotoxicity EC50 at 48 hours, U87
[12] = 72 h, read-out: Cytotoxicity EC50 at 72 hours, U87
[13] = 48 h, read-out: Cytotoxicity EC50 at 48 hours, Jurkat
[14] = 72 h, read-out: Cytotoxicity EC50 at 72 hours, Jurkat
[15] = SK-MEL-28, 48 h, 48 h, read-out: Cytotoxicity EC50 at 48 hours, Sk mel
[16] = SK-MEL-28, 72 h, 72 h, read-out: Cytotoxicity EC50 at 72 hours, Sk mel

## O=S1(=O)C=CC(OS(=O)(=O)c2ccc3ccccc3c2)C1 (centres unmarked) [(1), 1,1-dioxido-2,3-dihydrothiophen-3-yl naphthalene-2-sulfonate]
Melanoma cell line A375; [7]
  EC50: 4000 nM
Melanoma cell line A375; [8]
  EC50: 800 nM
[1]; [9]
  EC50: 1000 nM
[1]; [10]
  EC50: 4000 nM
[2]; [11]
  EC50: 1000 nM
[2]; [12]
  EC50: 4000 nM
[3]
  EC50: 2100 nM
[4]
  EC50 at 48 h: 400 nM
  EC50 at 72 h: 400 nM
[5]; [13]
  EC50: 3000 nM
[5]; [14]
  EC50: 5000 nM
[6]; [15]
  EC50: 4000 nM
[6]; [16]
  EC50: 300 nM

## O=S1(=O)C=CC(OS(=O)(=O)c2ccc(-c3ccccc3)cc2)C1 (centres unmarked) [(17), 1,1-dioxido-2,3-dihydrothiophen-3-yl [1,1′-biphenyl]-4-sulfonate]
Melanoma cell line A375; [8]
  EC50: 10000 nM
Melanoma cell line A375; read-out: Cytotoxicity EC50 at 48 hours, A375, 48 h
  EC50: 2600 nM
[1]; [9]
  EC50: 1000 nM
[1]; [10]
  EC50: 400 nM
[2]; [11]
  EC50: 2000 nM
[2]; [12]
  EC50: 900 nM
[4]
  EC50 at 48 h: 500 nM
  EC50 at 72 h: 500 nM
[5]; [13]
  EC50: 9000 nM
[5]; [14]
  EC50: 2000 nM
[6]; [15]
  EC50: 3200 nM
[6]; [16]
  EC50: 800 nM

## O=S1(=O)C=CC(OS(=O)(=O)c2ccc(Oc3ccccc3)cc2)C1 (centres unmarked) [(18), 1,1-dioxido-2,3-dihydrothiophen-3-yl 4-phenoxybenzenesulfonate]
Melanoma cell line A375; [7]
  EC50: 2000 nM
[2]; [11]
  EC50: 1000 nM
[4]
  EC50 at 48 h: 200 nM
  EC50 at 72 h: 21000 nM
[6]; [15]
  EC50: 2000 nM
[6]; [16]
  EC50: 3000 nM

## O=S1(=O)C=CC(OS(=O)(=O)c2cccc(C3CCCCC3)c2)C1 (centres unmarked) [(35), 1,1-dioxido-2,3-dihydrothiophen-3-yl 3-cyclohexylbenzenesulfonate]
Melanoma cell line A375; [7]
  EC50: 1000 nM
[3]
  EC50: 1200 nM

## O=S1(=O)C=CC(OS(=O)(=O)c2ccc(OC3CCCCC3)cc2)C1 (centres unmarked) [(36), 1,1-dioxido-2,3-dihydrothiophen-3-yl 4-(cyclohexyloxy)benzenesulfonate]
Melanoma cell line A375; [7]
  EC50: 4300 nM
[3]
  EC50: 2100 nM

## O=S1(=O)C=CC(OS(=O)(=O)c2cccc(OC3CCCCC3)c2)C1 (centres unmarked) [(37), 1,1-dioxido-2,3-dihydrothiophen-3-yl 3-(cyclohexyloxy)benzenesulfonate]
Melanoma cell line A375; [7]
  EC50: 2800 nM
[3]
  EC50: 1600 nM

## O=C(c1ccccc1)c1ccc(S(=O)(=O)OC2C=CS(=O)(=O)C2)cc1 (centres unmarked) [(38), 1,1-dioxido-2,3-dihydrothiophen-3-yl 4-benzoylbenzenesulfonate]
Melanoma cell line A375; [7]
  EC50: 200 nM
[3]
  EC50: 500 nM

## O=S1(=O)C=CC(OS(=O)(=O)c2ccc(C(O)c3ccccc3)cc2)C1 (centres unmarked) [(39), 1,1-dioxido-2,3-dihydrothiophen-3-yl 4-(hydroxy(phenyl)methyl)benzenesulfonate]
Melanoma cell line A375; [7]
  EC50: 1300 nM
[3]
  EC50: 1500 nM

## Cc1cc(Oc2ccccc2)ccc1S(=O)(=O)OC1C=CS(=O)(=O)C1 (centres unmarked) [(40), 1,1-dioxido-2,3-dihydrothiophen-3-yl 2-methyl-4-phenoxybenzenesulfonate]
Melanoma cell line A375; [7]
  EC50: 300 nM
[3]
  EC50: 200 nM

## COc1cc(Oc2ccccc2)ccc1S(=O)(=O)OC1C=CS(=O)(=O)C1 (centres unmarked) [(41), 1,1-dioxido-2,3-dihydrothiophen-3-yl 2-methoxy-4-phenoxybenzenesulfonate]
Melanoma cell line A375; [7]
  EC50: 600 nM
[3]
  EC50: 500 nM

## Cc1cc(S(=O)(=O)OC2C=CS(=O)(=O)C2)ccc1Oc1ccccc1 (centres unmarked) [(42)]
Melanoma cell line A375; [7]
  EC50: 500 nM
[3]
  EC50: 1200 nM

## COc1cc(S(=O)(=O)OC2C=CS(=O)(=O)C2)ccc1Oc1ccccc1 (centres unmarked) [(43), 1,1-dioxido-2,3-dihydrothiophen-3-yl 3-methoxy-4-phenoxybenzenesulfonate]
Melanoma cell line A375; [7]
  EC50: 3120 nM
[3]
  EC50: 610 nM

## O=S1(=O)C=CC(OS(=O)(=O)c2ccc(Sc3ccccc3)cc2)C1 (centres unmarked) [(44), 1,1-dioxido-2,3-dihydrothiophen-3-yl 4-(phenylthio)benzenesulfonate]
Melanoma cell line A375; [7]
  EC50: 3210 nM
[3]
  EC50: 800 nM

## O=S1(=O)C=CC(OS(=O)(=O)c2ccc(S(=O)(=O)c3ccccc3)cc2)C1 (centres unmarked) [(45), 1,1-dioxido-2,3-dihydrothiophen-3-yl 4-(phenylsulfonyl)benzenesulfonate]
Melanoma cell line A375; [7]
  EC50: 25000 nM
[3]
  EC50: 2400 nM

## CC(C)Nc1cc(-c2c[nH]c(C(=O)N[C@H](CO)c3cccc(Cl)c3)c2)c(Cl)cn1 [Ulixertinib, ulixertinib, reference compound]
Melanoma cell line A375; [7]
  EC50: 600 nM
[3]
  EC50: 14000 nM
[4]
  EC50 at 48 h: 31000 nM
